From patent US8710097B2, “Flavonoid dimers and methods of making and using such” (The Hong Kong Polytechnic University, priority 2006, dated 2014)
Read-outs that look alike come from different tables or passages of the source.

How the values were obtained:
[1] = system: SSG-resistant L. donovani Ld39 promastigotes; assay: microbe, parasite or virus in culture; assay type: cell-based, Leishmania donovani; details: for SSG resistance modulating activity: Ld39, FIG. 14B; for IC50: Leishmania donovani, 72 h, read-out: IC50(μM) of synthetic flavonoid, Ld39
Description: (§1) Cell lines and Cell Culture. Promastigotes of Leishmania enriettii (LePentR50, Le wild type, LeMDR1 −/− and LeMDR1-overexpressed LeV160 mutants) and Leishmania donovani (LdAG83, Ld2001 and Ld39) were employed in this study. The former is a natural infective strain of guinea pig and the latter is a clinical strain, which may cause visceral leishmaniasis in human. Both strains were cultured in Schneider's Drosophila Medium (Invitrogen), pH 6.9 supplemented with 10% (v/v) heat inactivated fetal calf serum (Hyclone) with 4 mM glutamine (Sigma) and 25 μg/mL gentamicin solution (Invitrogen), at 27° C. for 4 days (Cloning and functional analysis of an extrachromosomally amplified multidrug resistance-like gene in Leishmania enriettii. Mol. Biochem. Parasitol 1993, 60, 195-208). […]
(§2) The viability of promastigotes was determined by the Cell Titer 96® Aqueous Assay (Promega) that employs a tetrazolium compound (MTS) and electron coupling reagent, phenazine methosulfate (PMS). Promastigotes were seeded into 96-well flat bottom microtiter plate at 1×10^5 cells per well in a final volume of 100 μL medium. To determine the cytotoxic effects of flavonoid dimers to the parasites, various concentrations of flavonoid dimers were added to the promastigotes. To determine the reversal effects of flavonoid dimers with different spacer lengths, various concentrations of antileishmanial drugs, one of pentamidine or SSG, vinblastine and puromycin was added to the wells with or without flavonoid dimers. The parasites were incubated at 27° C. for 72 hrs. Each concentration of antileishmanials with or without the flavonoid dimers was tested in triplicates in each experiment. A 2 mg/mL MTS and 0.92 mg/mL PMS were mixed at a ratio of 20:1 (MTS: PMS). After 72-hr incubation, 10 μL of MTS:PMS mixture was added into each well of microtiter plate. The plate was then incubated at 27° C. for 4 hrs for color development. After 4 hrs of incubation, the OD values were determined at 490 nm using automatic microtiter plate reader (Bio-Rad).

[2] = system: wild type L. donovani LdAG83 promastigotes; assay: Leishmania cell viability (MTS) assay; assay type: cell-based, Leishmania donovani; details: Leishmania donovani, read-out: IC50(μM) of synthetic flavonoid, LdAG83
Description: as §1, §2

[3] = system: pentamidine-resistant L. enriettii LePentR50 promastigotes; assay: microbe, parasite or virus in culture; details: for IC50: Leishmania enriettii, 72 h, read-out: IC50(μM) of synthetic flavonoid, LePentR50, cytotoxicity of compound alone, 72 hrs; for pentamidine sensitization: LePentR50, FIG. 18A
Description: Cell lines and Cell Culture. Promastigotes of Leishmania enriettii (LePentR50, Le wild type, LeMDR1 −/− and LeMDR1-overexpressed LeV160 mutants) and Leishmania donovani (LdAG83, Ld2001 and Ld39) were employed in this study. The former is a natural infective strain of guinea pig and the latter is a clinical strain, which may cause visceral leishmaniasis in human. Both strains were cultured in Schneider's Drosophila Medium (Invitrogen), pH 6.9 supplemented with 10% (v/v) heat inactivated fetal calf serum (Hyclone) with 4 mM glutamine (Sigma) and 25 μg/mL gentamicin solution (Invitrogen), at 27° C. for 4 days (Cloning and functional analysis of an extrachromosomally amplified multidrug resistance-like gene in Leishmania enriettii. Mol. Biochem. Parasitol 1993, 60, 195-208).
Promastigotes of LeV160 were culture in the presence of 160 μg/mL vinblastine. No pentamidine and vinblastine (Sigma) was added to the Le wild type and LeMDR1 −/− mutant.
as §2

MDA435/LCC6 MDR cells = assay: cells; details: for doxorubicin sensitization / reversing effect on taxol resistance: MDA435/LCC6 MDR; for doxorubicin sensitization: dimers; for reversing effect on taxol resistance: dimers at 5 μM; for reversing activity compared with verapamil: LCC6MDR, taxol, 5 μM
Description: MDA435/LCC6 and P388 (both parent and MDR subtype) were maintained in DMEM and RPMI 1640 culture medium supplemented with 10% FBS, respectively. RPMI 1640 media also contained 100 units/ml penicillin and 100 μg/ml streptomycin. Cells were cultured at 37° C. in a humidified atmosphere with 5% CO2. A solution of 0.05% trypsin-EDTA was used to detach the MDA435/LCC6 (both wild type and MDR subtype) cells.
Cell proliferation assay. MDA435/LCC6 and P388 (both parent and MDR subtype) cells were seeded at 2000 and 5000 cells per well, respectively, in 96-well plates. Varying concentrations of anticancer drugs (Doxorubicin, Daunorubicin, Vincristine, Vinblastine, taxol, Mitoxantrone) with or without the flavonoid dimers were added in a final volume of 200 μl and cells were grown for 4 and 3 days for MDA435/LCC6 and P388 (both parent and MDR subtype) cells, respectively. For MDA435/LCC6 (both parent and MDR subtype), the corresponding drugs were added after cell attachment (24 hr incubation). To measure cell proliferation, the cell Titer 960 Aqueous Assay (Promega) was used according to the manufacturer's instructions. Briefly, MTS (2 mg/ml) and PMS (0.92 mg/ml) were mixed in a ratio of 20:1. 30 μl MTS/PMS mixture was added into each well and incubated for 2 hours at 37° C. Optical absorbance at 490 nm was then recorded using an ELISA microtiter plate reader (Bio-Rad). Each experiment was done at least in triplicate and repeated twice. Cytotoxicity of the anticancer drugs was expressed as the fraction of the cells survived relative to the untreated DMSO (0.05%) solvent controls.
MDA435/LCC6 is an estrogen-independent human breast cancer cell line. Its MDR subtype (MDA435/LCC6 MDR) was generated by transducing a retroviral vector directing the constitutive expression of the human MDR1 cDNA, producing a cell line with a classical MDR1 resistance pattern (MDA435/LCC6 and MDA435/LCC6MDR1: ascites models of human breast cancer. Br J Cancer 1996, 73, 154-161). The ability of the apigenin dimers of this invention to reverse taxol resistance in MDA435/LCC6 MDR cells were tested. […] Apigenin monomers 10a and 10b at 10 μM were used as the negative controls.

P388/ADR cells = assay: Doxorubicin accumulation; assay type: cell-based, murine; details: monomer 10b at double concentration of the dimers, FIG. 11A
Description: For P388 (both parent and MDR subtype) cells, 1 ml (10^5 cells) confluent cells were aliquot into Eppendorf tube and pre-incubated with flavone dimers for 30 min at 37° C. Doxorubicin (final concentration of 10 μM) was then added and incubated for 2 h at 37° C. at a final concentration of 10 μM. The cell pellets were washed 3 times with cold PBS by using an Eppendorf micro-centrifuge and lysed with 0.3N HCL in 50% ethanol, and sonicated for 30s. After centrifugation at 10000 rpm/min for 3 min, the supernatant was saved. The fluorescence of doxorubicin was measured using a spectrofluorometer (λexcite=470 nm, λemit=585 nm).

With `O=c1cc(-c2ccc(O)cc2)oc2cc(O)cc(O)c12` [Apigenin, reference compound] the “SSG resistance modulating activity” value ([1]; 12 μM) was “did not give any significant modulating activity”, the IC50 [1] was 43 ± 5.9 µM and the IC50 ([2]; cytotoxicity of compound alone, 72 hrs) was 32 ± 4.1 µM. The IC50 [3] was 55 ± 2.6 µM.
In the case of `O=c1cc(-c2ccc(OCCOc3ccc(-c4cc(=O)c5c(O)cc(O)cc5o4)cc3)cc2)oc2cc(O)cc(O)c12` [Compound 9a, 1,4-Bis[4′-((5,7-dihydroxy)-4H-chromen-4-on-2-yl)phenyl]-1,4-dioxabutane], the doxorubicin sensitization (MDA435/LCC6 MDR cells) is reported as “very little or no doxorubicin sensitization”, the “reversing effect on taxol resistance” value (MDA435/LCC6 MDR cells) is reported as “little or no reversing effect” and the “SSG resistance modulating activity” value ([1]; dimers at 6 μM) is reported as “did not show substantial SSG resistance modulating activity”. The IC50 [1] was 117 ± 10 µM, the IC50 ([2]; 72 h) was 95 ± 3.2 µM and the “activity on doxorubicin accumulation” value (P388/ADR cells) was “little or no activity at all”. For the same compound, the IC50 [3] was over 200 µM.
In the case of `O=c1cc(-c2ccc(OCCOCCOCCOCCOCCOc3ccc(-c4cc(=O)c5c(O)cc(O)cc5o4)cc3)cc2)oc2cc(O)cc(O)c12` [Compound 9e, 1,16-Bis[4′-((5,7-dihydroxy)-4H-chromen-4-on-2-yl)phenyl]-1,4,7,10,13,16-hexaoxahexadecane], the doxorubicin sensitization (MDA435/LCC6 MDR cells) is reported as “very little or no doxorubicin sensitization”, the “reversing effect on taxol resistance” value (MDA435/LCC6 MDR cells) is reported as “little or no reversing effect” and the IC50 [1] is reported as 42 ± 2.3 µM. For the same compound, the IC50 ([2]; 72 h) was 30 ± 1.2 µM, the “activity on doxorubicin accumulation” value (P388/ADR cells) was “little or no activity at all” and the IC50 [3] was 70 ± 3 µM.
With `O=c1cc(-c2ccc(OCCOCCOCCOCCOCCOCCOc3ccc(-c4cc(=O)c5c(O)cc(O)cc5o4)cc3)cc2)oc2cc(O)cc(O)c12` [Compound 9f, 1,19-Bis[4′-((5,7-dihydroxy)-4H-chromen-4-on-2-yl)phenyl]-1,4,7,10,13,16,19-heptaoxanonadecane] the doxorubicin sensitization (MDA435/LCC6 MDR cells) was “very little or no doxorubicin sensitization”, the “reversing effect on taxol resistance” value (MDA435/LCC6 MDR cells) was “little or no reversing effect” and the IC50 [1] was 13 ± 0.6 µM. It also gave an IC50 ([2]; 72 h) of 11 ± 2 µM and an IC50 [3] of 40 ± 5.3 µM.
In the case of `O=c1cc(-c2ccc(OCCOCCOCCOCCOCCOCCOCCOCCOCCOc3ccc(-c4cc(=O)c5c(O)cc(O)cc5o4)cc3)cc2)oc2cc(O)cc(O)c12` [Compound 9i, 1,28-Bis[4′-((5,7-dihydroxy)-4H-chromen-4-on-2-yl)phenyl]-1,4,7,10,13,16,19,22,25,28-decaoxaoctacosane], the IC50 [1] is reported as 14 ± 0.1 µM and the IC50 ([2]; 72 h) is reported as 10 ± 0.3 µM.
In the case of `O=c1cc(-c2ccc(OCCOCCOCCOCCOc3ccc(-c4cc(=O)c5ccccc5o4)cc3)cc2)oc2ccccc12` [Compound 35a, 1,13-Bis[4′-(4H-chromen-4-on-2-yl)phenyl]-1,4,7,10,13-pentaoxamidecane], the “reversing activity compared with verapamil” value (MDA435/LCC6 MDR cells) is reported as “stronger reversing activity than verapamil”.
`O=c1cc(-c2ccc(OCCOCCOCCOCCOc3ccc(-c4cc(=O)c5ccc(F)cc5o4)cc3)cc2)oc2cc(F)ccc12` [Compound 35b, 1,13-Bis[4′-(7-fluoro-4H-chromen-4-on-2-yl)phenyl]-1,4,7,10,13-pentaoxamidecane] was tested, and the “reversing activity compared with verapamil” value (MDA435/LCC6 MDR cells) was “stronger reversing activity than verapamil”.
For `O=c1cc(-c2ccc(OCCOCCOCCOCCOc3ccc(-c4cc(=O)c5cc(Cl)cc(Cl)c5o4)cc3)cc2)oc2c(Cl)cc(Cl)cc12` [Compound 35f, 1,13-Bis[4′-(6,8-dichloro-4H-chromen-4-on-2-yl)phenyl]-1,4,7,10,13-pentaoxamidecane], the “reversing activity compared with verapamil” value (MDA435/LCC6 MDR cells) was “stronger reversing activity than verapamil”.
With `Cc1ccc2c(=O)cc(-c3ccc(OCCOCCOCCOCCOc4ccc(-c5cc(=O)c6ccc(C)cc6o5)cc4)cc3)oc2c1` [Compound 35g, 1,13-Bis[4′-(7-methyl-4H-chromen-4-on-2-yl)phenyl]-1,4,7,10,13-pentaoxamidecane] the “reversing activity compared with verapamil” value (MDA435/LCC6 MDR cells) was “stronger reversing activity than verapamil”.
For `Cc1ccc2oc(-c3ccc(OCCOCCOCCOCCOc4ccc(-c5cc(=O)c6cc(C)ccc6o5)cc4)cc3)cc(=O)c2c1` [Compound 35h, 1,13-Bis[4′-(6-methyl-4H-chromen-4-on-2-yl)phenyl]-1,4,7,10,13-pentaoxamidecane], the “reversing activity compared with verapamil” value (MDA435/LCC6 MDR cells) was “stronger reversing activity than verapamil”.
`CCN(CC)CCCC(C)Nc1c2ccc(Cl)cc2nc2ccc(OC)cc12` (stereo not drawn) [quinacrine, reference compound] showed a pentamidine sensitization [3] of about 4.5 fold.
`C=C[C@H]1C[N@@]2CC[C@H]1C[C@@H]2[C@@H](O)c1ccnc2ccc(OC)cc12` [quinidine, reference compound] was tested, and the pentamidine sensitization [3] was “less than half-fold sensitization”.
With `C=C[C@H]1C[N@@]2CC[C@H]1C[C@H]2[C@H](O)c1ccnc2ccc(OC)cc12` [quinine, reference compound] the pentamidine sensitization [3] was “less than half-fold sensitization”.
`COC(=O)[C@H]1[C@H]2C[C@@H]3c4[nH]c5cc(OC)ccc5c4CCN3C[C@H]2C[C@@H](OC(=O)c2cc(OC)c(OC)c(OC)c2)[C@@H]1OC` [reserpine, reference compound] gave a pentamidine sensitization [3] of about 3.2 fold.
